From patent US20140163026A1, “8-ETHYL-6-(ARYL)PYRIDO[2,3-D]PYRIMIDIN-7(8H)-ONES FOR THE TREATMENT OF NERVOUS SYSTEM DISORDERS AND CANCER” (Afraxis Holdings, Inc., priority 2011, published 2014)
pIC50: −log10 of the molar value.

How the values were obtained:
Type in all cases: biochemical
[1] = biological target: PAK1 (Homo sapiens, UniProt Q13153); test: In vitro PAK inhibition assay (SelectScreen, Ser/Thr 19 peptide)
How it was run: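 Kinase reaction ran in 50 mM HEPES pH 7.5, 0.01% BRIJ-35, 10 mM MgCl2, 1 mM EGTA with Ser/Thr 19 peptide for 60 min at room temperature, followed by 60 min protease development. Fluorescence gave percent phosphorylation. Compounds were tested as 10-point, 3-fold titrations in 1% DMSO final.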

[2] = biological target: PAK2 (PAK65) (Homo sapiens, UniProt Q13177); test: In vitro PAK inhibition assay (SelectScreen, Ser/Thr 20 peptide)
Sequence of PAK2 (PAK65) (Q13177 whole entry): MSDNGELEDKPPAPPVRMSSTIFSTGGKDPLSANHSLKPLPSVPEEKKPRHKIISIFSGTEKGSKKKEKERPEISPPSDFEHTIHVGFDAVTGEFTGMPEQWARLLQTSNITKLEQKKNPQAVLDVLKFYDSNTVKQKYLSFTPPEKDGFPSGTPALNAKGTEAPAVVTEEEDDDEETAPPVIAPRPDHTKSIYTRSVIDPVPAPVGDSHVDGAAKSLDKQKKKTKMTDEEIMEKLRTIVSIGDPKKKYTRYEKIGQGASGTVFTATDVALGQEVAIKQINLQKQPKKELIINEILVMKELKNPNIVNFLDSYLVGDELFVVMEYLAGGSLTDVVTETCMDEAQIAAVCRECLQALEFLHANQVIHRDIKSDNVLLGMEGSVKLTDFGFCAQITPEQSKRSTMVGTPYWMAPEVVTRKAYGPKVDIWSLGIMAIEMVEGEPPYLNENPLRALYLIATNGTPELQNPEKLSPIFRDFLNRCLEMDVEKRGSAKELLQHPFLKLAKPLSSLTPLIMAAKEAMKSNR
How it was run: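 FRET-based peptide cleavage assay: 0.29-6 ng PAK2 and 2 μM Ser/Thr 20 peptide in 50 mM HEPES pH 7.5, 10 mM MgCl2, 1 mM EGTA, 0.01% BRIJ-35, 1% DMSO final. Kinase reaction 60 min at room temperature, then 60 min development; 10-point 3-fold titrations, percent phosphorylation from fluorescence.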

[3] = biological target: PAK3 (Homo sapiens, UniProt O75914); test: as above
Sequence of PAK3 (O75914 whole entry): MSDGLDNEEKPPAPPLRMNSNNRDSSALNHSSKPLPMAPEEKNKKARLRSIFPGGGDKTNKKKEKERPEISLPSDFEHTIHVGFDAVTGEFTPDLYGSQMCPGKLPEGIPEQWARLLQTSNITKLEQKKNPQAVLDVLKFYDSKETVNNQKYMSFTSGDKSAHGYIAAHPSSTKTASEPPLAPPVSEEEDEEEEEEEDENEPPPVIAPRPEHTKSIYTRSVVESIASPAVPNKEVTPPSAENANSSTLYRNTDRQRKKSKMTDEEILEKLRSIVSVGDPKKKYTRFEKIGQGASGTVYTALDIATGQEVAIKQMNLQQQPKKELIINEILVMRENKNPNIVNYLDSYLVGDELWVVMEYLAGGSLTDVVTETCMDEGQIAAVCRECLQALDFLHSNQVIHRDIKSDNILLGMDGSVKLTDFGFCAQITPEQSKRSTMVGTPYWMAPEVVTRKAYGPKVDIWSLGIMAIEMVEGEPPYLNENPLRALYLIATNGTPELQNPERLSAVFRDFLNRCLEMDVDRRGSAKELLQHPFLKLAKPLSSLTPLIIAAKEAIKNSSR
How it was run: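 PAK3 phosphorylation of Ser/Thr 20 peptide in 50 mM HEPES pH 7.5, 0.01% BRIJ-35, 10 mM MgCl2, 1 mM EGTA, 1% DMSO final; 60 min at room temperature, then 60 min development reaction with fluorescence read-out. 10-point 3-fold titrations; percent phosphorylation from 0% and 100% phosphopeptide controls.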

[4] = biological target: PAK4 (Homo sapiens, UniProt O96013); test: as above
Sequence of PAK4 (O96013 whole entry): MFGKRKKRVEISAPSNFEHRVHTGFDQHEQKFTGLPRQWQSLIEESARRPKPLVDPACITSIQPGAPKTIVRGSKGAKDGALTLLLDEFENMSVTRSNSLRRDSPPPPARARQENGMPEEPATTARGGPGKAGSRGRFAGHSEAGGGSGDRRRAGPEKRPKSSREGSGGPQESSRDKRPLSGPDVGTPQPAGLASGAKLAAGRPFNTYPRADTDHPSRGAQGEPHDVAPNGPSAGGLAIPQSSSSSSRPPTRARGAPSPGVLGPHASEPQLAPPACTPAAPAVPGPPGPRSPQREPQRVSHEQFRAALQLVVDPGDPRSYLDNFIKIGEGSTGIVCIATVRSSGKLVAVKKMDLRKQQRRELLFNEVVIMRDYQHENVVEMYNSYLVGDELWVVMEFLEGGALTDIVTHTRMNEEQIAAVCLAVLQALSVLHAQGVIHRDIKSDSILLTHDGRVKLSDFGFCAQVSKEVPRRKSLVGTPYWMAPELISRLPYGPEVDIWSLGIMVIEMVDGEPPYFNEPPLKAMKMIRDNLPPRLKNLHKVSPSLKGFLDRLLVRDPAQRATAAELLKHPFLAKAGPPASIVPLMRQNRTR
How it was run: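 FRET-based Ser/Thr 20 peptide phosphorylation: 0.1-0.75 ng PAK4, 2 μM peptide in 50 mM HEPES pH 7.5, 10 mM MgCl2, 1 mM EGTA, 0.01% BRIJ-35, 1% DMSO; 60 min at room temperature, then 60 min protease development. 10-point 3-fold titrations; IC50 from sigmoidal fit.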

Sequence of PAK1 (Q13153 whole entry): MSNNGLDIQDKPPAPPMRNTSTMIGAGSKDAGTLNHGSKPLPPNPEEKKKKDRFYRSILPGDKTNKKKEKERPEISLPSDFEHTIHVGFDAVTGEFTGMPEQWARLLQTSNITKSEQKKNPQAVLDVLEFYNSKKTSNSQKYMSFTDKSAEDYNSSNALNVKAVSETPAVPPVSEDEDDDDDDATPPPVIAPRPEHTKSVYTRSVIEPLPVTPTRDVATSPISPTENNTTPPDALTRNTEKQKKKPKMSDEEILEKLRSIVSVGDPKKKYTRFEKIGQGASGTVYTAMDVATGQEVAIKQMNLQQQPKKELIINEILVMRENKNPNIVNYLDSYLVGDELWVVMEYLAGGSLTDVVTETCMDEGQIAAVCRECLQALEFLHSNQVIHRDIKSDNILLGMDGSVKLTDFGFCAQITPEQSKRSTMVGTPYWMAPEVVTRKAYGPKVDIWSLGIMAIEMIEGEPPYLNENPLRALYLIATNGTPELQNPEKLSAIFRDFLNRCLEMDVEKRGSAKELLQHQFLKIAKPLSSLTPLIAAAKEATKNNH

SMILES | pIC50 [1] | pIC50 [2] | pIC50 [3] | pIC50 [4]
CCn1c(=O)c(-c2ccc(-c3cnn(C)c3)cc2)cc2cnc(Nc3ccc(N4CCN(C)CC4)cc3)nc21 | 6.30 to 7.30 | 6.30 to 7.30 | 5.30 to 6.30 | ≤ 5.30
CCn1c(=O)c(-c2ccc(-c3cccc4[nH]ccc34)cc2Cl)cc2cnc(Nc3ccc(N4CCN(C)CC4)cc3)nc21 | > 7.30 | 6.30 to 7.30 | 6.30 to 7.30 | ≤ 5.30
CCn1c(=O)c(-c2ccc(-c3cccc4ncccc34)cc2Cl)cc2cnc(Nc3ccc(N4CCN(C)CC4)cc3)nc21 | 6.30 to 7.30 | 6.30 to 7.30 | 6.30 to 7.30 | ≤ 5.30
CCn1c(=O)c(-c2ccc(-c3ccnn3C)cc2)cc2cnc(Nc3ccc(N4CCN(C)CC4)cc3)nc21 | 6.30 to 7.30 | 5.30 to 6.30 | 5.30 to 6.30 | ≤ 5.30
CCn1c(=O)c(-c2ccc(-c3noc(C)n3)cc2Cl)cc2cnc(Nc3ccc(CCN4CCOCC4)cc3)nc21 | 6.30 to 7.30 | 6.30 to 7.30 | 6.30 to 7.30 | ≤ 5.30
CCn1c(=O)c(-c2ccc(-c3cccnc3F)cc2Cl)cc2cnc(Nc3ccc(CCN4CCCC4)cc3)nc21 | > 7.30 | > 7.30 | > 7.30 | 6.30 to 7.30
CCn1c(=O)c(-c2ccc(-c3cnc(C)s3)cc2Cl)cc2cnc(Nc3ccc(CCN4CCCC4)cc3)nc21 | > 7.30 | > 7.30 | > 7.30 | 5.30 to 6.30
Cc1ncc(-c2ccc(-c3cc4cnc(Nc5ccc(C6CCNCC6)cc5)nc4n(C)c3=O)c(Cl)c2)s1 | > 7.30 | > 7.30 | 6.30 to 7.30 | 5.30 to 6.30
CCn1c(=O)c(-c2ccc(-c3cnc(C)s3)cc2Cl)cc2cnc(Nc3ccc(CCN4CCOCC4)cc3)nc21 | 6.30 to 7.30 | 6.30 to 7.30 | 6.30 to 7.30 | ≤ 5.30
CCn1c(=O)c(-c2ccc(-c3cccnc3C)cc2Cl)cc2cnc(Nc3ccc(CCN4CCOCC4)cc3)nc21 | 6.30 to 7.30 | 6.30 to 7.30 | 6.30 to 7.30 | ≤ 5.30
CCn1c(=O)c(-c2ccc(-c3cccnc3C)cc2C)cc2cnc(Nc3ccc(C4CCN(C)CC4)cc3)nc21 | > 7.30 | 6.30 to 7.30 | 6.30 to 7.30 | ≤ 5.30
CCn1c(=O)c(-c2ccc(-c3noc(C)n3)cc2C)cc2cnc(Nc3ccc(C4CCN(C)CC4)cc3)nc21 | > 7.30 | > 7.30 | > 7.30 | 5.30 to 6.30
CCN(CC)CCc1ccc(Nc2ncc3cc(-c4ccc(-c5cccnc5C)cc4Cl)c(=O)n(CC)c3n2)cc1 | > 7.30 | > 7.30 | 6.30 to 7.30 | ≤ 5.30
CCN(CC)CCc1ccc(Nc2ncc3cc(-c4ccc(-c5cccnc5F)cc4Cl)c(=O)n(CC)c3n2)cc1 | > 7.30 | > 7.30 | > 7.30 | 6.30 to 7.30
CCN(CC)CCc1ccc(Nc2ncc3cc(-c4ccc(-c5noc(C)n5)cc4Cl)c(=O)n(CC)c3n2)cc1 | > 7.30 | > 7.30 | > 7.30 | 5.30 to 6.30
CCN(CC)CCc1ccc(Nc2ncc3cc(-c4ccc(-c5cnc(C)s5)cc4Cl)c(=O)n(CC)c3n2)cc1 | > 7.30 | > 7.30 | > 7.30 | 5.30 to 6.30
CCn1c(=O)c(-c2ccc(-c3noc(C)n3)cc2F)cc2cnc(Nc3ccc(C4CCN(C)CC4)cc3)nc21 | > 7.30 | > 7.30 | 6.30 to 7.30 | ≤ 5.30
CCn1c(=O)c(-c2ccc(-c3cnccn3)cc2F)cc2cnc(Nc3ccc(C4CCN(C)CC4)cc3)nc21 | > 7.30 | > 7.30 | > 7.30 | 6.30 to 7.30
Cc1ncccc1-c1cc(Cl)c(-c2cc3cnc(Nc4ccc(C5CCN(C)CC5)cc4)nc3n(C)c2=O)cc1F | 6.30 to 7.30 | 6.30 to 7.30 | 5.30 to 6.30 | ≤ 5.30
CN1CCC(c2ccc(Nc3ncc4cc(-c5cc(F)c(-c6cccnc6F)cc5Cl)c(=O)n(C)c4n3)cc2)CC1 | > 7.30 | > 7.30 | 6.30 to 7.30 | ≤ 5.30
CCn1c(=O)c(-c2ccc(-c3cc(C)ncn3)cc2Cl)cc2cnc(Nc3ccc(C4CCN(C)CC4)cc3)nc21 | > 7.30 | 6.30 to 7.30 | 6.30 to 7.30 | ≤ 5.30
CCn1c(=O)c(-c2ccc(-c3ccccc3F)cc2Cl)cc2cnc(Nc3ccc(C4CCN(C)CC4)cc3)nc21 | > 7.30 | > 7.30 | > 7.30 | 5.30 to 6.30

SMILES | pIC50 [1] | pIC50 [2] | pIC50 [3] | pIC50 [4]
CCn1c(=O)c(-c2ccc(-c3cnc(C)o3)cc2Cl)cc2cnc(Nc3ccc(C4CCN(C)CC4)cc3)nc21 | > 7.30 | 6.30 to 7.30 | 6.30 to 7.30 | ≤ 5.30
CCn1c(=O)c(-c2ccc(-c3cc(C(F)(F)F)ncn3)cc2Cl)cc2cnc(Nc3ccc(C4CCN(C)CC4)cc3)nc21 | 6.30 to 7.30 | 6.30 to 7.30 | 6.30 to 7.30 | ≤ 5.30
CCn1c(=O)c(-c2ccc(-c3cc(NC4CC4)ncn3)cc2Cl)cc2cnc(Nc3ccc(C4CCN(C)CC4)cc3)nc21 | 6.30 to 7.30 | 6.30 to 7.30 | 6.30 to 7.30 | ≤ 5.30
CCn1c(=O)c(-c2ccc(-c3cc(C)nc(C)n3)cc2Cl)cc2cnc(Nc3ccc(C4CCN(C)CC4)cc3)nc21 | > 7.30 | > 7.30 | 6.30 to 7.30 | ≤ 5.30
CCOC(=O)c1cncnc1-c1ccc(-c2cc3cnc(Nc4ccc(C5CCN(C)CC5)cc4)nc3n(CC)c2=O)c(Cl)c1 | 5.30 to 6.30 | 5.30 to 6.30 | 5.30 to 6.30 | ≤ 5.30
CCn1c(=O)c(-c2ccc(-c3cc(N(C)C)ncn3)cc2Cl)cc2cnc(Nc3ccc(C4CCN(C)CC4)cc3)nc21 | > 7.30 | 6.30 to 7.30 | 6.30 to 7.30 | ≤ 5.30
CCn1c(=O)c(-c2ccc(-c3ncncc3F)cc2Cl)cc2cnc(Nc3ccc(C4CCN(C)CC4)cc3)nc21 | > 7.30 | > 7.30 | > 7.30 | 5.30 to 6.30
CCn1c(=O)c(-c2ccc(-c3ccnc(C(F)(F)F)n3)cc2Cl)cc2cnc(Nc3ccc(C4CCN(C)CC4)cc3)nc21 | > 7.30 | > 7.30 | 6.30 to 7.30 | ≤ 5.30
CCn1c(=O)c(-c2ccc(-c3noc(C)n3)nc2)cc2cnc(Nc3ccc(C4CCN(C)CC4)cc3)nc21 | 5.30 to 6.30 | 5.30 to 6.30 | 5.30 to 6.30 | ≤ 5.30
CCn1c(=O)c(-c2ccc(-c3cccnc3C)cn2)cc2cnc(Nc3ccc(C4CCN(C)CC4)cc3)nc21 | < 5.30 | < 5.30 | < 5.30 | ≤ 5.30
Cc1ncc(-c2cc(Cl)c(-c3cc4cnc(Nc5ccc(C6CCN(C)CC6)cc5)nc4n(C)c3=O)cc2F)s1 | > 7.30 | > 7.30 | > 7.30 | ≤ 5.30
Cc1nc(-c2cc(Cl)c(-c3cc4cnc(Nc5ccc(C6CCN(C)CC6)cc5)nc4n(C)c3=O)cc2F)no1 | > 7.30 | > 7.30 | > 7.30 | ≤ 5.30
CCn1c(=O)c(-c2ccc(-c3cnc(C)s3)cn2)cc2cnc(Nc3ccc(C4CCN(C)CC4)cc3)nc21 | 5.30 to 6.30 | < 5.30 | < 5.30 | ≤ 5.30
CCn1c(=O)c(-c2ccc(-c3cnc(C)s3)nc2)cc2cnc(Nc3ccc(C4CCN(C)CC4)cc3)nc21 | 5.30 to 6.30 | 5.30 to 6.30 | 5.30 to 6.30 | ≤ 5.30
CN1CCC(c2ccc(Nc3ncc4cc(-c5cc(-c6cccnc6)ccc5Cl)c(=O)n(C)c4n3)cc2)CC1 | 6.30 to 7.30 | 5.30 to 6.30 | 5.30 to 6.30 | ≤ 5.30
CN(C)CCc1ccc(Nc2ncc3cc(-c4ccc(-c5cccnc5N(C)C)cc4Cl)c(=O)n(C)c3n2)cc1 | 6.30 to 7.30 | 5.30 to 6.30 | 5.30 to 6.30 | ≤ 5.30
CCc1cc(-c2ccc(-c3cc4cnc(Nc5ccc(C6CCN(C)CC6)cc5)nc4n(CC)c3=O)c(Cl)c2)ncn1 | > 7.30 | > 7.30 | 6.30 to 7.30 | ≤ 5.30
CCn1c(=O)c(-c2ccc(-c3noc(C)n3)cn2)cc2cnc(Nc3ccc(C4CCN(C)CC4)cc3)nc21 | 5.30 to 6.30 | < 5.30 | < 5.30 | ≤ 5.30
Cc1nccnc1-c1ccc(-c2cc3cnc(Nc4ccc(C5CCN(C)CC5)cc4)nc3n(C)c2=O)c(Cl)c1 | > 7.30 | > 7.30 | > 7.30 | ≤ 5.30
CCn1c(=O)c(-c2cc(C)c(-c3cccnc3)cc2Cl)cc2cnc(Nc3ccc(C4CCN(C)CC4)cc3)nc21 | > 7.30 | > 7.30 | > 7.30 | 6.30 to 7.30
CCn1c(=O)c(-c2ccc(-c3nccnc3C)cc2Cl)cc2cnc(Nc3ccccc3)nc21 | 6.30 to 7.30 | 6.30 to 7.30 | 6.30 to 7.30 | ≤ 5.30
CCn1c(=O)c(-c2cc(C)c(-c3cccnc3C)cc2Cl)cc2cnc(Nc3ccc(C4CCN(C)CC4)cc3)nc21 | > 7.30 | > 7.30 | 6.30 to 7.30 | ≤ 5.30
